In PMC10698194 (Nature Communications, 2023):
“And” between values parts separate entries of the source, which are not always exact repeats. Equal entries are not always repeated. Where two headings read alike, the source gives them in different places.

Key:
[1] = molecular target: T1, mouse KOR, Gαi2 (Mus musculus, UniProt P33534); assay: TRUPATH BRET G protein assay, Gαi2; assay type: cell-based
T1 construct: expressed in transfected cells; host or cells: HEK293T (ATCC, CRL-3216), transient

[2] = molecular target: mouse KOR, GαoA (Mus musculus, UniProt P33534); assay: TRUPATH BRET G protein assay, GαoA; assay type: cell-based; conditions: TRUPATH; read-out: Emax (%) GαoA
Chain of mouse KOR, GαoA (P33534 whole entry): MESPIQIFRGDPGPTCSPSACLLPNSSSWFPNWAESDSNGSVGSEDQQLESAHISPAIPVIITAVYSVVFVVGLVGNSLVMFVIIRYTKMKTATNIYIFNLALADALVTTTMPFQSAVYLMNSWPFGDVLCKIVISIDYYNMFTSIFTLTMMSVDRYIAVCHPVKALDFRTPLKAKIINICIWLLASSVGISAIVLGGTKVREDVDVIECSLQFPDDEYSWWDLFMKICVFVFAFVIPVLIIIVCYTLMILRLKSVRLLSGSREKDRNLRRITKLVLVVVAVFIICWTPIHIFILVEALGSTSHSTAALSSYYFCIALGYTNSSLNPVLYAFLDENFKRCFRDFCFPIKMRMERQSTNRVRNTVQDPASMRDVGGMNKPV
Chain of mouse KOR, GαoA (P09471 2-354 partner): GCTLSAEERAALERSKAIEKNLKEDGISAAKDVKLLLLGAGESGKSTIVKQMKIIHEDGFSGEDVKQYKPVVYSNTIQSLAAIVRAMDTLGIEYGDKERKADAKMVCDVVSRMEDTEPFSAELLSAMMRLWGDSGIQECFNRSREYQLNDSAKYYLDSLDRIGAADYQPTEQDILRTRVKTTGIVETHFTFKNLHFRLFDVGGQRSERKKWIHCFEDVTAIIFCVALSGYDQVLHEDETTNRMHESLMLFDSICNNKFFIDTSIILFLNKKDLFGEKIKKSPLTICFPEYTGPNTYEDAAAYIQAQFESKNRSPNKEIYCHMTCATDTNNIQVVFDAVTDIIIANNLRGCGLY

[3] = molecular target: mouse KOR, Gαz (Mus musculus, UniProt P33534); assay: TRUPATH BRET G protein assay, Gαz; assay type: cell-based
Chain of mouse KOR, Gαz (P33534 whole entry): as the sequence (P33534 whole entry) above
Chain of mouse KOR, Gαz (P19086 2-355 partner): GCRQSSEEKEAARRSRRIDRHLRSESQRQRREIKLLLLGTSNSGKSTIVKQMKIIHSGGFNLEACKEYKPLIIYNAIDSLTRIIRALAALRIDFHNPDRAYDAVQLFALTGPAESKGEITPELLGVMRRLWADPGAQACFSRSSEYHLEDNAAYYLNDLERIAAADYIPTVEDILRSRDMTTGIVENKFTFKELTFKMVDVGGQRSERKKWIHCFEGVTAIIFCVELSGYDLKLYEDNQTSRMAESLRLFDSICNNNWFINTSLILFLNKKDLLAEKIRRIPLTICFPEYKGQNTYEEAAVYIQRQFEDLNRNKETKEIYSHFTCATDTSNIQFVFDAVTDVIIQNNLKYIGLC

[4] = molecular target: mouse KOR, Gαi1 (Mus musculus, UniProt P33534); assay: TRUPATH BRET G protein assay, Gαi1; assay type: cell-based; conditions: TRUPATH; read-out: Emax (%) Gαi1
Chain of mouse KOR, Gαi1 (P33534 whole entry): as the sequence (P33534 whole entry) above
Chain of mouse KOR, Gαi1 (P63096 2-354 partner): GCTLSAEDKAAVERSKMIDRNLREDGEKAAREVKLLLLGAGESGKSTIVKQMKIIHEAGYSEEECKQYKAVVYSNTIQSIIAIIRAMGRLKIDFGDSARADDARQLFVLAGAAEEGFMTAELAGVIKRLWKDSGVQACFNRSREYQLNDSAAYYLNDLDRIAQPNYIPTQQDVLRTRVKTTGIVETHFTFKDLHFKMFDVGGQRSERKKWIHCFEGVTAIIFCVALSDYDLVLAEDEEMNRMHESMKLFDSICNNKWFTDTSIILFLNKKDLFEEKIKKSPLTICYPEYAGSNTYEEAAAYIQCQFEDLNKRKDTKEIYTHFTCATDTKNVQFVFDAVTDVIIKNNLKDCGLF

[5] = molecular target: mouse KOR, Gαi3 (Mus musculus, UniProt P33534); assay: TRUPATH BRET G protein assay, Gαi3; assay type: cell-based; conditions: TRUPATH; read-out: Emax (%) Gαi3
Chain of mouse KOR, Gαi3 (P33534 whole entry): as the sequence (P33534 whole entry) above
Chain of mouse KOR, Gαi3 (P08754 2-354 partner): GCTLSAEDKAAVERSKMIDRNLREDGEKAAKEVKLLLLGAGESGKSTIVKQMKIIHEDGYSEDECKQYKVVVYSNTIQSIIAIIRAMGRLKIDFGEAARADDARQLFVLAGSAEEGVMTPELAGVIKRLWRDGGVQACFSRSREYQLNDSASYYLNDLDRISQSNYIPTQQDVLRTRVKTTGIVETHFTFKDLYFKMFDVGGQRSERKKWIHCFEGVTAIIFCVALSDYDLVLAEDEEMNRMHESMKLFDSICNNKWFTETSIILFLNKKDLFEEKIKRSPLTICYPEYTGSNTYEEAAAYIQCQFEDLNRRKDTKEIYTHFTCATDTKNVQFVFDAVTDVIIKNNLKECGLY

[6] = molecular target: mouse KOR, GαoB (Mus musculus, UniProt P33534); assay: TRUPATH BRET G protein assay, GαoB; assay type: cell-based; conditions: TRUPATH; read-out: Emax (%) GαoB
Chain of mouse KOR, GαoB (P33534 whole entry): as the sequence (P33534 whole entry) above
Chain of mouse KOR, GαoB (P09471 2-354 partner): as the sequence (P09471 2-354 partner) above

[7] = molecular target: mouse KOR, Gαgustducin (Mus musculus, UniProt P33534); assay: TRUPATH BRET G protein assay, Gαgustducin; assay type: cell-based; conditions: read-out: Emax (%) Gαgustducin
Chain of mouse KOR, Gαgustducin (P33534 whole entry): as the sequence (P33534 whole entry) above
Chain of mouse KOR, Gαgustducin (A8MTJ3 2-354 partner): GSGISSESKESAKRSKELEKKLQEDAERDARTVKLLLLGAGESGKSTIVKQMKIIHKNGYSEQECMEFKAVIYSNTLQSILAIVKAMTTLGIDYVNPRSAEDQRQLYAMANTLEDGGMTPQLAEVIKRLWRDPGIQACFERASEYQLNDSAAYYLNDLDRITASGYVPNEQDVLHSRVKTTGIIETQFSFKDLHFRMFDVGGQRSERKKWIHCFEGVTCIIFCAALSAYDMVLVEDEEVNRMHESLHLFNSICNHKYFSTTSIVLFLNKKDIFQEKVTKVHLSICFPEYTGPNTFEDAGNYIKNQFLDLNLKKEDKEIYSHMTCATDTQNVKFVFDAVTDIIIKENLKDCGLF

[8] = molecular target: human KOR (Homo sapiens, UniProt P41145); assay: cell-based; design: expressed in transfected cells; host or cells: HEK293, transient
Chain of human KOR (P41145 whole entry): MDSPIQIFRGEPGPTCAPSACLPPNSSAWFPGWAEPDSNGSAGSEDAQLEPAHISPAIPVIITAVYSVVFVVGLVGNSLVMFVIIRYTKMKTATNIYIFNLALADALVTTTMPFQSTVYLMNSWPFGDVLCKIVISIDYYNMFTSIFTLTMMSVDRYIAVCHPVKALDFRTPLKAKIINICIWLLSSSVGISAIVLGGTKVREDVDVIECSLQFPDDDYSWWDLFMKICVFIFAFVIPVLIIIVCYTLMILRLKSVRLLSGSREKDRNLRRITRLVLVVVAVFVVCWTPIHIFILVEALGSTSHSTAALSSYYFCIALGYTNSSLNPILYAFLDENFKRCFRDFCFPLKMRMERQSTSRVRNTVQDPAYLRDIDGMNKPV

[9] = molecular target: T2, human KOR L309A (Homo sapiens, UniProt P41145, L309A); assay type: cell-based
T2 construct: FLAG; expressed in transfected cells; host or cells: HEK293T
T2 sequence (P41145 whole entry L309A): as the sequence (P41145 whole entry) above, with L309A counted along it

[10] = molecular target: T3, human KOR WT (Homo sapiens, UniProt P41145); assay: BRET β-arrestin-2 biosensor assay; assay type: cell-based
T3 construct: FLAG; expressed in transfected cells; host or cells: HEK293T, transient
T3 sequence (P41145 whole entry): as the sequence (P41145 whole entry) above

[11] = molecular target: T3, human KOR WT; assay type: cell-based
[12] = in vitro; conditions: human, serum, serum stability, amount remaining, Figure S15
Description: (§1) Blood was drawn from healthy volunteers devoid of any medication for 14 days from the antecubital vein using 21 G needles and collected in a serum clot activator tube (4 mL tubes, Greiner bio-one). […] Volunteers gave written informed consent before blood donation. […] Blood samples were collected into Vacuette® clot activator tubes (Greiner Bio-One, Austria). After clotting of about 2 h, the samples were centrifuged at 2200 × g for 15 min at 22 °C. The serum was removed and centrifuged again to remove lipids and cell particles at 16,000 × g at 4 °C for 20 min. […] The samples were incubated at 37 °C under continuous shaking at 300 rotations-per-minute. […] The samples were mixed well and incubated on ice for 10 min. For the protein precipitation, 30 µL of a 20% (w/v) trichloroacetic acid was added and incubated on ice for 15 min. The clear supernatant was harvested by centrifugation at 16,000 × g at 4 °C for 20 min and this sample was used for HPLC analysis. The chromatography HPLC system was a ThermoFisher Ultimate 3000 equipped with a pump, autosampler and single wavelength detector. […] The remaining peptide was calculated relative to the AUC at time point zero. The data points were fitted to a one-phase decay function and to determine the resulting half-life of the peptide in serum.
(§2) 0.1% trifluoroacetic acid in water and acetonitrile/water trifluoroacetic acid 90/10/0.1% (v/v/v) with a
linear separation gradient over 30 min.

[13] = molecular target: T4, human KOR E209A (Homo sapiens, UniProt P41145, E209A); assay type: cell-based
T4 construct: FLAG; expressed in transfected cells; host or cells: HEK293 / HEK293T, transient
T4 sequence (P41145 whole entry E209A): as the sequence (P41145 whole entry) above, with E209A counted along it

[14] = molecular target: T4, human KOR E209A; assay: BRET β-arrestin-2 biosensor assay; assay type: cell-based
[15] = molecular target: T5, human KOR E297A (Homo sapiens, UniProt P41145, E297A); assay: BRET β-arrestin-2 biosensor assay; assay type: cell-based
T5 construct: FLAG; expressed in transfected cells; host or cells: HEK293T
T5 sequence (P41145 whole entry E297A): as the sequence (P41145 whole entry) above, with E297A counted along it

[16] = molecular target: T6, mouse KOR (Mus musculus, UniProt P33534); assay: cell-based; design: expressed in transfected cells
Target sequence in this assay (P33534 whole entry): as the sequence (P33534 whole entry) above

[17] = molecular target: T5, human KOR E297A; assay type: cell-based
[18] = molecular target: T3, human KOR WT; assay: cAMP inhibition assay normalized to salvinorin A; assay type: cell-based
[19] = molecular target: T6, mouse KOR; assay: cell-based; design: expressed in transfected cells; host or cells: HEK293T, transient
Target sequence in this assay (P33534 whole entry): as above
Target sequence in this assay (P32121 whole entry partner): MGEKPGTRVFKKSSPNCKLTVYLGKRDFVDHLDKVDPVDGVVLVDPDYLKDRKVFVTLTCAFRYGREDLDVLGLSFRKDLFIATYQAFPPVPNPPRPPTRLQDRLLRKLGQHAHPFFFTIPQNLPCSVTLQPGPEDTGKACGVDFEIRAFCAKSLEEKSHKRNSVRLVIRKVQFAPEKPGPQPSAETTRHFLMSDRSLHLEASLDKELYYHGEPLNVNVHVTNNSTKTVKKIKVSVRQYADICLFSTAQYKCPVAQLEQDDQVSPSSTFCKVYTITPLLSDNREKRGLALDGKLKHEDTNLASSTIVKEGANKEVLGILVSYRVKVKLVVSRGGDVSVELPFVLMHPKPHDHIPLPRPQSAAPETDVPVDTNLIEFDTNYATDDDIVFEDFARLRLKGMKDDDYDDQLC

[20] = molecular target: T2, human KOR L309A; assay: BRET β-arrestin-2 biosensor assay; assay type: cell-based
[21] = human
Description: as §1, §2
linear separation gradient over 30 min.

T1 sequence (P33534 whole entry): as the sequence (P33534 whole entry) above

In the case of `O=C(NC1C=CC2C3Cc4ccc(O)c5c4C2(CCN3CC2CC2)C1O5)c1cccc(I)c1` (stereo not shown) [MP1104], the “potency (log EC50) Gαi2” value ([1]; Fig. 3i spider plot) is reported as -9.607, the “Gαi2, normalized response (single replicate values)” value (“Gαi2, normalized response” below) ([1]; Log [ligand] (M) -5) is reported as 68.8651 and 55.859 and 33.3938 and 78.3335 and 54.4028 and 51.6416 and 70.9702 and 67.6827 and the “Gαi2, normalized response” value ([1]; Log [ligand] (M) -6) is reported as 66.5004 and 68.8651 and 52.3118 and 47.96 and 45.1988 and 59.9253 and 82.9355 and 80.6889. The “Gαi2, normalized response” value ([1]; Log [ligand] (M) -7) was 70.0475 and 61.7708 and 39.3057 and 73.7314 and 51.6416 and 42.4375 and 78.3335 and 51.1294, the “Gαi2, normalized response” value ([1]; Log [ligand] (M) -8) was 83.0537 and 70.0475 and 49.9471 and 81.0947 and 82.9355 and 89.3784 and 101.344 and 61.7708 and the “Gαi2, normalized response” value ([1]; Log [ligand] (M) -9) was 49.9471 and 40.488 and 71.2299 and 59.0049 and 80.1743 and 78.3335 and 46.1192 and 33.3938. The “Gαi2, normalized response” value ([1]; Log [ligand] (M) -10) was 20.3876 and 60.5885 and 12.111 and 42.4375 and 46.1192 and 22.1885 and 25.8702 and 19.2052, the “Gαi2, normalized response” value ([1]; Log [ligand] (M) -11) was -28.0899 and -9.172 and -25.7252 and 25.8702 and -9.105 and 27.711 and -46.8421 and 9.7462 and the “Gαi2, normalized response” value ([1]; Log [ligand] (M) -12) was 21.57 and -2.078 and 28.6643 and 3.78 and 2.86 and 9.303 (2×) and 6.199. The Emax ([1]; TRUPATH) was 65 ± 6%, the “Gαi2 (Figure 3j)” value ([1]; source data of Figure 3j, U50,488 about 100) was 64.9839 and the Emax [2] was 87 ± 7%. For the same compound, the highest potency ([3]; Gαz subtype) was “picomolar range”, the Emax ([3]; TRUPATH) was 101 ± 3% and the Emax [4] was 100 ± 4%. The Emax [5] was 85 ± 3%, the Emax [6] was 101 ± 8% and the Emax [7] was 95 ± 5%. For the same compound, the “potency (log EC50) β-arrestin-2” value [8] was -8.493, the “β-arrestin-2 (Figure 3j)” value [8] was 91 and the Emax ([8]; HEK293, read-out: Emax β-arrestin-1 recruitment) was 91 ± 8%.

With `CC[C@H](C)[C@H](NC(=O)[C@H](CCCN=C(N)N)NC(=O)[C@H](CCCN=C(N)N)NC(=O)[C@H](CC(C)C)NC(=O)[C@H](Cc1ccccc1)NC(=O)CNC(=O)CNC(=O)[C@@H](N)Cc1ccc(O)cc1)C(=O)N[C@@H](CCCN=C(N)N)C(=O)N1CCC[C@H]1C(=O)N[C@@H](CCCCN)C(=O)N[C@@H](CC(C)C)C(=O)N[C@@H](CCCCN)C(N)=O` [dynA1-13] the EC50 [9] was 0.0302 nM, the EC50 [10] was 0.617 nM and the EC50 [11] was 0.0437 nM. The remaining at 5 min [12] was 106%, the remaining at 10 min [12] was 85% and the remaining at 20 min [12] was 66%. The remaining at 40 min [12] was 33%, the remaining at 1 h [12] was 7% and the remaining at 2 h [12] was 2%. For the same compound, the remaining at 4 h [12] was 0%, the remaining at 6 h [12] was 0.1% and the remaining at 24 h [12] was 0.1%. It also gave a remaining at 48 h [12] of 5%, an EC50 [13] of 0.148 nM and an EC50 [14] of 6.61 nM. It also gave an EC50 [15] of 7.94 nM, an EC50 [16] of 4.9 ± 1.8 nM and an EC50 [17] of 0.204 nM. The EC50 [18] was 0.00501 nM, the EC50 ([19]; EC50 β-arrestin-2 recruitment) was 31 nM and the EC50 ([19]; potency (log EC50) β-arrestin-3) was 31 nM. For the same compound, the EC50 [20] was 1.32 nM, the “serum stability, amount remaining, Figure S15” value [21] was 100 and the “serum stability, amount remaining, Figure S15” value ([21]; 40 min) was 30. The “serum stability, amount remaining, Figure S15” value ([21]; 1 h) was 6.
